{
  "source": "patent US20160008277A1",
  "about": "“CO-PACKAGED DRUG PRODUCTS” (Lightlake Therapeutics Inc., priority 2014, published 2016)",
  "note": "Like-named read-outs stand apart in the source and are kept apart here.",
  "data": [
    {"smiles": "C=CCN1CC[C@]23c4c5ccc(O)c4O[C@H]2C(=O)CC[C@@]3(O)[C@H]1C5", "note": "[naloxone, 17-allyl-4,5a-epoxy-3,14-dihydroxymorphinan-6-one]", "values": [
      {"measurement": "AUC % Extrapolate, mean (% CV)", "setting": "0.4 mg IM", "result": "2.32 (54.1) %"},
      {"measurement": "Lambda z (harmonic mean)", "setting": "0.4 mg IM", "result": 0.5534, "unit": "h⁻¹"},
      {"measurement": "Lambda z (harmonic mean)", "setting": "0.4 mg IM, Female", "result": 0.6140, "unit": "h⁻¹"},
      {"measurement": "Lambda z (harmonic mean)", "setting": "0.4 mg IM, Male", "result": 0.5152, "unit": "h⁻¹"},
      {"measurement": "Lambda z (harmonic mean)", "setting": "One 20 mg/mL IN, Female", "result": 0.3978, "unit": "h⁻¹"},
      {"measurement": "Lambda z (harmonic mean)", "setting": "One 20 mg/mL IN, Male", "result": 0.3492, "unit": "h⁻¹"},
      {"measurement": "Lambda z (harmonic mean)", "setting": "One 40 mg/mL IN, Female", "result": 0.2946, "unit": "h⁻¹"},
      {"measurement": "Lambda z (harmonic mean)", "setting": "One 40 mg/mL IN, Male", "result": 0.3386, "unit": "h⁻¹"},
      {"measurement": "AUC % Extrapolate, mean (% CV)", "setting": "One Spray - 2 mg 20 mg/mL IN", "result": "1.09 (41.9) %"},
      {"measurement": "Lambda z (harmonic mean)", "setting": "One Spray - 2 mg 20 mg/mL IN", "result": 0.3685, "unit": "h⁻¹"},
      {"measurement": "AUC % Extrapolate, mean (% CV)", "setting": "One Spray - 4 mg 40 mg/mL IN", "result": "1.06 (52.5) %"},
      {"measurement": "Lambda z (harmonic mean)", "setting": "One Spray - 4 mg 40 mg/mL IN", "result": 0.3182, "unit": "h⁻¹"},
      {"measurement": "Lambda z (harmonic mean)", "setting": "Two 20 mg/mL IN, Female", "result": 0.2796, "unit": "h⁻¹"},
      {"measurement": "Lambda z (harmonic mean)", "setting": "Two 20 mg/mL IN, Male", "result": 0.3122, "unit": "h⁻¹"},
      {"measurement": "Lambda z (harmonic mean)", "setting": "Two 40 mg/mL IN, Female", "result": 0.2994, "unit": "h⁻¹"},
      {"measurement": "Lambda z (harmonic mean)", "setting": "Two 40 mg/mL IN, Male", "result": 0.3407, "unit": "h⁻¹"},
      {"measurement": "AUC % Extrapolate, mean (% CV)", "setting": "Two Sprays - 4 mg 20 mg/mL IN", "result": "1.01 (53.9) %"},
      {"measurement": "Lambda z (harmonic mean)", "setting": "Two Sprays - 4 mg 20 mg/mL IN", "result": 0.2973, "unit": "h⁻¹"},
      {"measurement": "AUC % Extrapolate, mean (% CV)", "setting": "Two Sprays - 8 mg 40 mg/mL IN", "result": "1.04 (78.1) %"},
      {"measurement": "Lambda z (harmonic mean)", "setting": "Two Sprays - 8 mg 40 mg/mL IN", "result": 0.3217, "unit": "h⁻¹"}
    ]}
  ]
}
